Target: PIK3CG (human) (UniProt P48736)
Assay: Inhibition of PIK3CG Kinase Activity

PIK3CG (human), sequence (P48736 whole entry, looked up): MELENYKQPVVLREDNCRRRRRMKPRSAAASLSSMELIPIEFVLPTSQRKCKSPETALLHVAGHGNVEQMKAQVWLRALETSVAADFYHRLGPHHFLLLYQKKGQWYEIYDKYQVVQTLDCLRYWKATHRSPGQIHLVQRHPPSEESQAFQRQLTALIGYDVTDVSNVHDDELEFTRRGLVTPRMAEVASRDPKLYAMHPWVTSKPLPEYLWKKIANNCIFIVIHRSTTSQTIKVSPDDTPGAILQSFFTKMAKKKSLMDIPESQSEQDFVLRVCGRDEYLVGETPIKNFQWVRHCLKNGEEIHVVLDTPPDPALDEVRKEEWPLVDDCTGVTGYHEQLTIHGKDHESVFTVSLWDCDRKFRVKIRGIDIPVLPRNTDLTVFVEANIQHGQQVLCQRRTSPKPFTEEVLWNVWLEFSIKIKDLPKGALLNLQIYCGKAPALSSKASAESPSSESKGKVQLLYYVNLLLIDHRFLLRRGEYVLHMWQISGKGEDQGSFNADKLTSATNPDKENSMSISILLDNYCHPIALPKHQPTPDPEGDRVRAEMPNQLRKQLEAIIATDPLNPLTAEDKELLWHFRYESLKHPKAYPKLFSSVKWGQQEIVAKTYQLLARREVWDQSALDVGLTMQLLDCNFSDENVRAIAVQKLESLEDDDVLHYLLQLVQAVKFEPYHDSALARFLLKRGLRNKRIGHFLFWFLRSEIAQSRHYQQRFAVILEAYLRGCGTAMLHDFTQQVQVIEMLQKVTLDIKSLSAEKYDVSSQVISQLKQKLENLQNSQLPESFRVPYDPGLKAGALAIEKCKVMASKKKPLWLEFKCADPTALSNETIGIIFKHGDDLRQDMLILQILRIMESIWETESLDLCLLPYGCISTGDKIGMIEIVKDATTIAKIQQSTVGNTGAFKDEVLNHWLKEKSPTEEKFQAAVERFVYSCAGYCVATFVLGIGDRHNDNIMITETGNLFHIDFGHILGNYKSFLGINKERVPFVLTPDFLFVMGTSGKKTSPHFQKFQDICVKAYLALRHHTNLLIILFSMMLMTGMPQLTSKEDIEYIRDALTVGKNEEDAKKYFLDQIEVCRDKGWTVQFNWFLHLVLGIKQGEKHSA

Structure (SMILES) | IC50
CCc1nnc(CCNC(=O)Nc2nc3c(s2)-c2c(cnn2-c2ccccc2C(F)(F)F)C3)o1 | < 0.8 µM
CN(C)C(=O)CNC(=O)Nc1nc2c(s1)-c1c(cnn1-c1ccccc1Cl)C2 | < 0.8 µM
CCc1csc(CCNC(=O)Nc2nc3c(s2)-c2c(cnn2-c2ccccc2C(F)(F)F)C3)n1 | < 0.8 µM
O=C(Nc1nc2c(s1)-c1c(cnn1-c1ccccc1Cl)C2)Nc1ccccc1CN1CCNC1=O | < 0.8 µM
Nc1cc(CCNC(=O)Nc2nc3c(s2)-c2c(cnn2-c2ccccc2C(F)(F)F)C3)nn1-c1ccccc1 | < 0.8 µM
CCNC(=O)Nc1nc2c(s1)-c1c(cnn1-c1cc(Cl)ccc1Cl)C2 | < 0.8 µM
O=C(NCCc1cn[nH]c1)Nc1nc2c(s1)-c1c(cnn1-c1ccccc1Cl)C2 | < 0.8 µM
CN(C)C(=O)Nc1nc2c(s1)-c1c(cnn1-c1ccccc1Br)C2 | < 0.8 µM
CC(C)(C)OC(=O)NCc1cccc(CNC(=O)Nc2nc3c(s2)-c2c(cnn2-c2ccccc2Cl)C3)c1 | < 0.8 µM
O=C(NCc1nnn[nH]1)Nc1nc2c(s1)-c1c(cnn1-c1ccccc1Br)C2 | < 0.8 µM
CC(=O)NC1CCN(C(=O)Nc2nc3c(s2)-c2c(cnn2-c2ccccc2Cl)C3)C1 (configuration not stated) | < 0.8 µM
O=C(NCc1ccn[nH]1)Nc1nc2c(s1)-c1c(cnn1-c1ccccc1C(F)(F)F)C2 | < 0.8 µM
CC1CC(c2ccc(O)cc2)CN1C(=O)Nc1nc2c(s1)-c1c(cnn1-c1ccccc1Cl)C2 (configuration not stated) | < 0.8 µM
Nc1cc(CCNC(=O)Nc2nc3c(s2)-c2c(cnn2-c2ccccc2C(F)(F)F)C3)nn1CCO | < 0.8 µM
O=C(Nc1nc2c(s1)-c1c(cnn1-c1ccccc1Cl)C2)N1CCCC(C(O)c2ccccc2)C1 (configuration not stated) | < 0.8 µM
CCn1cc(CNC(=O)Nc2nc3c(s2)-c2c(cnn2-c2ccccc2C(F)(F)F)C3)cn1 | < 0.8 µM
Cc1nn(C)cc1CNC(=O)Nc1nc2c(s1)-c1c(cnn1-c1ccccc1C(F)(F)F)C2 | < 0.8 µM
CC(C)c1cnc(CCNC(=O)Nc2nc3c(s2)-c2c(cnn2-c2ccccc2Cl)C3)o1 | < 0.8 µM
CCn1cnc(CCNC(=O)Nc2nc3c(s2)-c2c(cnn2-c2cc(F)ccc2C(F)(F)F)C3)c1 | < 0.8 µM
CCc1cnc(CCNC(=O)Nc2nc3c(s2)-c2c(cnn2-c2ccccc2Cl)C3)o1 | < 0.8 µM
CC(C)NC(=O)Nc1nc2c(s1)-c1c(cnn1-c1ccccc1Br)C2 | < 0.8 µM
CC(C)(C)OC(=O)N[C@H]1CC[C@H](CNC(=O)Nc2nc3c(s2)-c2c(cnn2-c2ccccc2Cl)C3)CC1 | < 0.8 µM
CCn1cnc(CCNC(=O)Nc2nc3c(s2)-c2c(cnn2-c2ccccc2C(F)(F)F)C3)c1 | < 0.8 µM

Structure (SMILES) | IC50
N#CCCn1nc(CCNC(=O)Nc2nc3c(s2)-c2c(cnn2-c2ccccc2C(F)(F)F)C3)cc1N | < 0.8 µM
CCCNC(=O)Nc1nc2c(s1)-c1c(cnn1-c1cc(F)ccc1C(F)(F)F)C2 | < 0.8 µM
O=C(NCC1CC1)Nc1nc2c(s1)-c1c(cnn1-c1ccccc1Cl)C2 | < 0.8 µM
CN1CCC(CNC(=O)Nc2nc3c(s2)-c2c(cnn2-c2ccccc2Cl)C3)CC1 | < 0.8 µM
O=C1CC[C@H](NC(=O)Nc2nc3c(s2)-c2c(cnn2-c2ccccc2Cl)C3)CN1 | < 0.8 µM
O=C(NCCCN1CCNC1=O)Nc1nc2c(s1)-c1c(cnn1-c1ccccc1Cl)C2 | < 0.8 µM
CCc1cnc(CCNC(=O)Nc2nc3c(s2)-c2c(cnn2-c2ccccc2C(F)(F)F)C3)o1 | < 0.8 µM
CCNC(=O)Nc1nc2c(s1)-c1c(cnn1-c1cccc(F)c1C(F)(F)F)C2 | < 0.8 µM
CCn1ccc(CNC(=O)Nc2nc3c(s2)-c2c(cnn2-c2ccccc2C(F)(F)F)C3)n1 | < 0.8 µM
O=C(Nc1nc2c(s1)-c1c(cnn1-c1ccccc1Cl)C2)N1CCC(N2Cc3ccccc3NC2=O)C1 (configuration not stated) | < 0.8 µM
O=C(NCCc1cccnc1)Nc1nc2c(s1)-c1c(cnn1-c1ccccc1Cl)C2 | < 0.8 µM
Nc1cc(CCNC(=O)Nc2nc3c(s2)-c2c(cnn2-c2ccccc2C(F)(F)F)C3)nn1Cc1ccccc1 | < 0.8 µM
O=C(O)[C@H]1[C@H](c2ccccc2)CCN1C(=O)Nc1nc2c(s1)-c1c(cnn1-c1ccccc1Cl)C2 | < 0.8 µM
O=C(NCc1nnc(-c2ccccc2)o1)Nc1nc2c(s1)-c1c(cnn1-c1ccccc1C(F)(F)F)C2 | < 0.8 µM
CCc1cnc(CCNC(=O)Nc2nc3c(s2)-c2c(cnn2-c2cc(Cl)ccc2Cl)C3)o1 | < 0.8 µM
CC(C)(C)CNC(=O)Nc1nc2c(s1)-c1c(cnn1-c1ccccc1Cl)C2 | < 0.8 µM
CCn1cnc(CCNC(=O)Nc2nc3c(s2)-c2c(cnn2-c2cc(Cl)ccc2Cl)C3)c1 | < 0.8 µM
O=C(Nc1nc2c(s1)-c1c(cnn1-c1ccccc1Cl)C2)N1CCCCC1c1nc2ccccc2[nH]1 (configuration not stated) | < 0.8 µM
CCCn1cnc(CCNC(=O)Nc2nc3c(s2)-c2c(cnn2-c2ccccc2C(F)(F)F)C3)c1 | < 0.8 µM
O=C(NCCc1nc(C2CC2)no1)Nc1nc2c(s1)-c1c(cnn1-c1ccccc1C(F)(F)F)C2 | < 0.8 µM
CCN1CCC2(CCN(C(=O)Nc3nc4c(s3)-c3c(cnn3-c3ccccc3Cl)C4)C2)C1 (configuration not stated) | < 0.8 µM
CN(C)CCNC(=O)Nc1nc2c(s1)-c1c(cnn1-c1ccccc1C(F)(F)F)C2 | < 0.8 µM
O=C(NCc1cccnc1)Nc1nc2c(s1)-c1c(cnn1-c1ccccc1C(F)(F)F)C2 | < 0.8 µM

Structure (SMILES) | IC50
CC(C)(C)c1cc(CNC(=O)Nc2nc3c(s2)-c2c(cnn2-c2ccccc2C(F)(F)F)C3)[nH]n1 | < 0.8 µM
Cn1ccc(CNC(=O)Nc2nc3c(s2)-c2c(cnn2-c2ccccc2C(F)(F)F)C3)n1 | < 0.8 µM
CN(Cc1ccco1)C(=O)Nc1nc2c(s1)-c1c(cnn1-c1ccccc1C(F)(F)F)C2 | < 0.8 µM
O=C(NCc1cccs1)Nc1nc2c(s1)-c1c(cnn1-c1ccccc1C(F)(F)F)C2 | < 0.8 µM
CC(C)(C)n1nc(CCNC(=O)Nc2nc3c(s2)-c2c(cnn2-c2ccccc2C(F)(F)F)C3)cc1N | < 0.8 µM
CCCCNC(=O)Nc1nc2c(s1)-c1c(cnn1-c1cccc(F)c1C(F)(F)F)C2 | < 0.8 µM
CCc1noc(CCNC(=O)Nc2nc3c(s2)-c2c(cnn2-c2ccccc2Cl)C3)n1 | < 0.8 µM
NC(=O)c1cccc(CNC(=O)Nc2nc3c(s2)-c2c(cnn2-c2ccccc2C(F)(F)F)C3)c1 | < 0.8 µM
O=C(O)CCCNC(=O)Nc1nc2c(s1)-c1c(cnn1-c1ccccc1C(F)(F)F)C2 | < 0.8 µM
CC(C)(C)OC(=O)NCC1CCCN1C(=O)Nc1nc2c(s1)-c1c(cnn1-c1ccccc1Cl)C2 (configuration not stated) | < 0.8 µM
CN(Cc1cnn(C)c1)C(=O)Nc1nc2c(s1)-c1c(cnn1-c1ccccc1C(F)(F)F)C2 | < 0.8 µM
O=C(O)CC1(CNC(=O)Nc2nc3c(s2)-c2c(cnn2-c2ccccc2Cl)C3)CCCCC1 | < 0.8 µM
CC(C)(C)OC(=O)CCNC(=O)Nc1nc2c(s1)-c1c(cnn1-c1ccccc1Cl)C2 | < 0.8 µM
O=C(C[C@H]1CCCN1C(=O)OCc1ccccc1)Nc1nc2c(s1)-c1c(cnn1-c1ccccc1Cl)C2 | < 0.8 µM
CC(C)Cn1cnc(CCNC(=O)Nc2nc3c(s2)-c2c(cnn2-c2ccccc2C(F)(F)F)C3)c1 | < 0.8 µM
CC(C)(C)OC(=O)N1CCCC(CNC(=O)Nc2nc3c(s2)-c2c(cnn2-c2ccccc2Cl)C3)C1 (configuration not stated) | < 0.8 µM
NC(=O)Nc1nc2c(s1)-c1c(cnn1-c1ccccc1Br)C2 | < 0.8 µM
CC(C)c1cnc(CCNC(=O)Nc2nc3c(s2)-c2c(cnn2-c2ccccc2C(F)(F)F)C3)o1 | < 0.8 µM
CCOC(Cn1nc(CCNC(=O)Nc2nc3c(s2)-c2c(cnn2-c2ccccc2C(F)(F)F)C3)cc1N)OCC | < 0.8 µM
CNC(=O)Nc1nc2c(s1)-c1c(cnn1-c1ccccc1Br)C2 | < 0.8 µM
CC(C)(C)OC(=O)N1CCC[C@H]1CNC(=O)Nc1nc2c(s1)-c1c(cnn1-c1ccccc1Cl)C2 | < 0.8 µM
O=C(NCC1CC1)Nc1nc2c(s1)-c1c(cnn1-c1ccccc1C(F)(F)F)C2 | < 0.8 µM
O=C(NCC1CC1)Nc1nc2c(s1)-c1c(cnn1-c1cccc(F)c1C(F)(F)F)C2 | < 0.8 µM

Structure (SMILES) | IC50
O=C(NCCn1nc(C(F)(F)F)cc1-c1ccco1)Nc1nc2c(s1)-c1c(cnn1-c1ccccc1C(F)(F)F)C2 | < 0.8 µM
CC(C)(CCn1c(=O)[nH]c2ccccc21)NC(=O)Nc1nc2c(s1)-c1c(cnn1-c1ccccc1C(F)(F)F)C2 | < 0.8 µM
CCc1cc(CC)n(CCNC(=O)Nc2nc3c(s2)-c2c(cnn2-c2ccccc2C(F)(F)F)C3)n1 | < 0.8 µM
Nc1nnc(CNC(=O)Nc2nc3c(s2)-c2c(cnn2-c2ccccc2C(F)(F)F)C3)[nH]1 | < 0.8 µM
N#Cc1ccc(CNC(=O)Nc2nc3c(s2)-c2c(cnn2-c2ccccc2C(F)(F)F)C3)s1 | < 0.8 µM
CN(C)C(=O)CNC(=O)Nc1nc2c(s1)-c1c(cnn1-c1ccccc1C(F)(F)F)C2 | < 0.8 µM
CC(C)(NC(=O)Nc1nc2c(s1)-c1c(cnn1-c1ccccc1Cl)C2)C1Nc2ccccc2NC1=O (configuration not stated) | < 0.8 µM
CCCCNC(=O)Nc1nc2c(s1)-c1c(cnn1-c1ccccc1C(F)(F)F)C2 | < 0.8 µM
CNC(=O)Nc1nc2c(s1)-c1c(cnn1-c1ccccc1C(F)(F)F)C2 | < 0.8 µM
O=C(NCc1cc(C2CC2)n[nH]1)Nc1nc2c(s1)-c1c(cnn1-c1cccc(F)c1C(F)(F)F)C2 | < 0.8 µM
CCCNC(=O)Nc1nc2c(s1)-c1c(cnn1-c1ccccc1Cl)C2 | < 0.8 µM
CNC(=O)Nc1nc2c(s1)-c1c(cnn1-c1cc(Cl)ccc1Cl)C2 | < 0.8 µM
CCn1cnc(CCNC(=O)Nc2nc3c(s2)-c2c(cnn2-c2cccc(F)c2C(F)(F)F)C3)c1 | < 0.8 µM
O=C(NCc1cccc(N2CCNC2=O)c1)Nc1nc2c(s1)-c1c(cnn1-c1ccccc1C(F)(F)F)C2 | < 0.8 µM
CC(NC(=O)Nc1nc2c(s1)-c1c(cnn1-c1ccccc1Cl)C2)c1cccc(NC(=O)OC(C)(C)C)c1 (configuration not stated) | < 0.8 µM
Cc1cc(CNC(=O)Nc2nc3c(s2)-c2c(cnn2-c2ccccc2C(F)(F)F)C3)nn1C | < 0.8 µM
CCc1cc(=O)n(CCNC(=O)Nc2nc3c(s2)-c2c(cnn2-c2ccccc2C(F)(F)F)C3)[nH]1 | < 0.8 µM
CCOC(=O)CNC(=O)Nc1nc2c(s1)-c1c(cnn1-c1ccccc1C(F)(F)F)C2 | < 0.8 µM
CC(C)(C)n1nc(CNC(=O)Nc2nc3c(s2)-c2c(cnn2-c2ccccc2C(F)(F)F)C3)cc1N | < 0.8 µM
O=C(NCCc1ccccn1)Nc1nc2c(s1)-c1c(cnn1-c1ccccc1Cl)C2 | < 0.8 µM
O=C(NCc1cc(C2CC2)n[nH]1)Nc1nc2c(s1)-c1c(cnn1-c1ccccc1Br)C2 | < 0.8 µM
CN(CCc1cn[nH]c1)C(=O)Nc1nc2c(s1)-c1c(cnn1-c1ccccc1C(F)(F)F)C2 | < 0.8 µM
NC(=O)Nc1nc2c(s1)-c1c(cnn1-c1ccccc1C(F)(F)F)C2 | < 0.8 µM

From the Kinase Knowledgebase extract (Sharma et al. 2016)
